Reference: US8575135B2 (Gilead Sciences, Inc., priority 2011, dated 2013)
Read-outs that look alike come from different tables or passages of the source.

Assays:
[1] = test system: stable HCV 1b RLuc replicon cells (genotype 1b Con1 replicon); assay: microbe, parasite or virus in culture; format: cell-based; conditions: Hepatitis C virus, read-out: 1b (nM)
[2] = test system: stable HCV 1a RLuc replicon cells (genotype 1a H77 replicon); assay: microbe, parasite or virus in culture; format: cell-based; conditions: Hepatitis C virus
[3] = test system: stable HCV 2a JFH-1 Rluc replicon cells (L31 present in NS5A); assay: microbe, parasite or virus in culture; format: cell-based; conditions: Hepatitis C virus
[4] = IV and PO single dose pharmacokinetic studies in SD rats; format: in vivo; conditions: male, Sprague-Dawley, rat, plasma, IV infusion 1 mg/kg vs oral gavage 2 mg/kg, read-out: Rat % F
Procedure: IV and PO Single Dose Pharmacokinetic Studies in SD Rats: The pharmacokinetics of selected compounds was characterized in male Sprague-Dawley (SD) rats (250-300g). […] The intravenous (IV) dosing vehicle was 5% ethanol, 35% polyethylene glycol 400 (PEG 400) and 60% water pH 2.0. […] Serial blood samples (approximately 0.3 mL each) were collected from jugular vein or other suitable vein at specified time points. […] The blood samples were collected into Vacutainer™ tubes containing EDTA-K3 as the anti-coagulant and were centrifuged at approximately 4° C. to obtain plasma. The plasma samples were stored at −20° C. until analysis by LC/MS/MS. A bioanalytical method utilizing high performance liquid chromatography coupled to tandem mass spectrometry (LC/MS/MS) was developed for analysis of the selected compound in rat plasma. Detection was performed using selected reaction monitoring (SRM); […] Standard curve and quality control samples were prepared in male rat plasma and processed in the same way as the test samples to generate quantitative data. Pharmacokinetic parameters were generated using non-compartmental pharmacokinetic analysis (Phoenix WinNonlin, version 6.3). Values below the lower limit of quantification (LLOQ) were assigned a value of zero if predose and treated as missing thereafter. Area under the curve (AUC) was calculated using the linear trapezoidal rule. The oral bioavailability (% F) was determined by comparison of the area under the curve (AUC) of the compound and/or a metabolite generated in plasma following oral administration to that generated following intravenous administration.

[5] = test system: NS5A chimeric genotype 2a JFH-1 replicon with genotype 2a J6 strain NS5A gene (M31 present); assay: microbe, parasite or virus in culture; format: cell-based, HCV; conditions: Hepatitis C virus
[6] = test system: NS5A chimeric genotype 1b Con1 replicon with genotype 3a S52 strain NS5A gene; assay: microbe, parasite or virus in culture; format: cell-based, HCV; conditions: Hepatitis C virus
Outline: (§1)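 Genotype 3a (S52) and 4a (ED43) NS5A chimeras use 1b Con1 Pi-RLuc replicons, transfected transiently; 2b MD2b-1 NS5A chimera (M31) uses 2a JFH-1 RLuc-Neo replicon, transient or stable.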

[7] = test system: NS5A chimeric genotype 2a JFH-1 replicon with genotype 2b MD2b-1 strain NS5A gene (M31 present); assay: microbe, parasite or virus in culture; format: cell-based, HCV; conditions: Hepatitis C virus
Outline: as §1

[8] = test system: 1a Pi-Rluc replicon with Q30R in genotype 1a NS5A; assay: microbe, parasite or virus in culture; format: cell-based, HCV; conditions: Hepatitis C virus
Outline: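 Renilla luciferase replicon assay: 1a Pi-RLuc replicon carrying NS5A Q30R, transfected transiently into cured-51 (Huh-7-derived) cells.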

[9] = test system: NS5A chimeric genotype 1b Con1 replicon with genotype 4a ED43 strain NS5A gene; assay: microbe, parasite or virus in culture; format: cell-based, HCV; conditions: Hepatitis C virus

| Compound | EC50 [1] [nM] | EC50 ([2]; read-out: 1a) [nM] | EC50 ([2]; read-out: 1a (nM)) [nM] | EC50 ([3]; read-out: 2a JFH) [nM] | EC50 ([3]; read-out: 2a JFH (nM)) [nM] | bioavailability [4] [%] | EC50 ([5]; read-out: 2a J6) [nM] | EC50 ([5]; read-out: 2a Jb (t) (nM)) [nM] | EC50 ([6]; read-out: 3a) [nM] | EC50 ([6]; read-out: 3a (nM)) [nM] | EC50 ([7]; read-out: 2b) [nM] | EC50 ([7]; read-out: 2b (t) (nM)) [nM] | EC50 ([8]; read-out: 1a Q30R) [nM] | EC50 ([8]; read-out: 1a Q30R (nM)) [nM] | EC50 ([9]; read-out: 4a) [nM] | EC50 ([9]; read-out: 4a (s) (nM)) [nM] | EC50 ([9]; read-out: 4a (t) (nM)) [nM] | EC50 ([5]; read-out: 2a J6 (s) (nM)) [nM] | EC50 ([7]; read-out: 2b (s) (nM)) [nM] |
| --- | --- | --- | --- | --- | --- | --- | --- | --- | --- | --- | --- | --- | --- | --- | --- | --- | --- | --- | --- |
| CCC(C)[C@H](NC(=O)OC)C(=O)N1C[C@@H](C)CC1c1ncc(-c2ccc3c(c2)COc2cc4c(ccc5nc([C@@H]6CC(COC)CN6C(=O)[C@H](NC(=O)OC)c6ccccc6)[nH]c54)cc2-3)[nH]1 (stereo in doubt) [Example QB, Methyl {(1R)-2-[(2S,4S)-2-(9-{2-[(2S,4S)-1-{(2S,3R)-2-[(methoxycarbonyl)amino]-3-methylpentanoyl}-4-methylpyrrolidin-2-yl]-1H-imidazol-5-yl}-1,11-dihydroisochromeno[4′,3′:6,7]naphtho[1,2-d]imidazol-2-yl)-4-(methoxymethyl)pyrrolidin-1-yl]-2-oxo-1-phenylethyl}carbamate] | 0.011 | < 1 | 0.011 | < 1 | 0.008 | 9.56 | < 1 | 0.021 | < 1 | 0.028 | < 1 | 0.022 | < 1 | 0.029 |  |  |  |  |  |
| COC[C@H]1C[C@@H](c2nc3ccc4cc5c(cc4c3[nH]2)OCc2cc(-c3cnc([C@@H]4CC[C@H](C)N4C(=O)[C@@H](NC(=O)OC)C(C)C)[nH]3)ccc2-5)N(C(=O)[C@@H](NC(=O)OC)C(C)C)C1 [Example MP, methyl{(2S)-1-[(2S,5S)-2-(5-{2-[(2S,4S)-1-{(2S)-2-[(methoxycarbonyl)amino]-3-methylbutanoyl}-4-methoxymethylpyrrolidin-2-yl]-1,11-dihydroisochromeno[4′,3′:6,7]naphtho[1,2-d]imidazol-9-yl}-1H-imidazol-2-yl)-5-methylpyrrolidin-1-yl]-3-methyl-1-oxobutan-2-yl}carbamate] |  | < 1 | 0.006 | < 1 | 0.004 | 24.2 | < 1 | 0.039 | < 1 | 0.015 | < 1 | 0.032 | < 1 | 0.031 | < 1 | 0.013 | 0.015 | 0.336 | 0.184 |
| COC(=O)N[C@H](C(=O)N1[C@@H](C)CC[C@H]1c1ncc(-c2ccc3c(c2)COc2cc4c(ccc5nc([C@@H]6CC[C@H](C)N6C(=O)[C@@H](NC(=O)OC)[C@@H](C)OC)[nH]c54)cc2-3)[nH]1)[C@@H](C)OC [Example NI, Methyl [(2S,3R)-3-methoxy-1-{(2S,5S)-2-[9-(2-{(2S,5S)-1-[N-(methoxycarbonyl)-O-methyl-L-threonyl]-5-methylpyrrolidin-2-yl}-1H-imidazol-5-yl)-1,11-dihydroisochromeno[4′,3′:6,7]naphtho[1,2-d]imidazol-2-yl]-5-methylpyrrolidin-1-yl}-1-oxobutan-2-yl]carbamate] |  | < 1 | 0.015 | < 1 | 0.007 | 24.1 | < 1 | 0.026 | < 1 | 0.022 | < 1 | 0.019 | < 1 | 0.059 | < 1 |  | 0.02 | 0.169 | 0.054 |
| COC[C@H]1C[C@@H](c2nc3ccc4cc5c(cc4c3[nH]2)OCc2cc(-c3cnc([C@@H]4CC[C@H](C)N4C(=O)[C@@H](NC(=O)OC)C(C)C)[nH]3)ccc2-5)N(C(=O)[C@H](NC(=O)OC)c2ccccc2)C1 [Example NP, Methyl {(2S)-1-[(2S,5S)-2-(5-{2-[(2S,4S)-1-{(2R)-2-[(methoxycarbonyl)amino]-2-phenylacetyl}-4-(methoxymethyl)pyrrolidin-2-yl]-1,11 dihydroisochromeno[4′,3′:6,7]naphtho[1,2-d]imidazol-9-yl}-1H-imidazol-2-yl)-5-methylpyrrolidin-1-yl]-3-methyl-1-oxobutan-2-yl}carbamate] |  | < 1 | 0.014 | < 1 | 0.007 | 26.1 | < 1 | 0.01 | < 1 | 0.02 | < 1 | 0.011 | < 1 | 0.032 | < 1 | 0.028 |  | 0.096 | 0.043 |
| COC[C@H]1C[C@@H](c2nc3ccc4cc5c(cc4c3[nH]2)OCc2cc(-c3cnc([C@@H]4C[C@H](C)CN4C(=O)[C@H](NC(=O)OC)c4ccccc4)[nH]3)ccc2-5)N(C(=O)[C@@H](NC(=O)OC)C(C)C)C1 [Example PF, methyl {1-[2-{9-[2-(1-{[(methoxycarbonyl)amino](phenyl)acetyl}-4-methylpyrrolidin-2-yl)-1H-imidazol-5-yl]-1,11-dihydroisochromeno[4′,3′:6,7]naphtho[1,2-d]imidazol-2-yl}-4-(methoxymethyl)pyrrolidin-1-yl]-3-methyl-1-oxobutan-2-yl}carbamate] |  | < 1 | 0.032 | < 1 | 0.014 | 4.3 | < 1 | 0.025 | < 1 | 0.072 | < 1 | 0.023 | < 1 | 0.034 | < 1 | 0.018 | 0.05 | 0.127 | 0.117 |
| COC[C@H]1C[C@@H](c2ncc(-c3ccc4c(c3)COc3cc5c(ccc6nc([C@@H]7CC[C@H](C)N7C(=O)[C@@H](NC(=O)OC)[C@@H](C)OC)[nH]c65)cc3-4)[nH]2)N(C(=O)[C@@H](NC(=O)OC)C(C)C)C1 [Example PI, methyl {(2S)-1-[(2S,4S)-2-(5-{2-[(2S,5S)-1-{(2S,3R)-3-methoxy-2-[(methoxycarbonyl)amino]butanoyl}-5-methylpyrrolidin-2-yl]-1,11-dihydroisochromeno[4′,3′:6,7]naphtho[1,2-d]imidazol-9-yl}-1H-imidazol-2-yl)-4-(methoxymethyl)pyrrolidin-1-yl]-3-methyl-1-oxobutan-2-yl}carbamate] | 0.039 | < 1 | 0.031 | < 1 | 0.02 | 8.7 | < 1 | 0.129 | < 1 | 0.065 | < 1 | 0.09 | < 1 | 0.094 |  |  |  |  |  |
| COC[C@H]1C[C@@H](c2ncc(-c3ccc4c(c3)COc3cc5c(ccc6nc([C@@H]7CC[C@H](C)N7C(=O)[C@@H](NC(=O)OC)C(C)C)[nH]c65)cc3-4)[nH]2)N(C(=O)[C@H](NC(=O)OC)c2ccccc2)C1 [Example PY, Methyl {(2S)-1-[(2S,5S)-2-(9-{2-[(2S,4S)-1-{(2R)-2-[(methoxycarbonyl)amino]-2-phenylacetyl}-4-(methoxymethyl)pyrrolidin-2-yl]-1H-imidazol-5-yl}-1,11-dihydroisochromeno[4′,3′:6,7]naphtho[1,2-d]imidazol-2-yl)-5-methylpyrrolidin-1-yl]-3-methyl-1-oxobutan-2-yl}carbamate] |  | < 1 | 0.012 | < 1 | 0.006 | 27.7 | < 1 | 0.009 | < 1 | 0.017 | < 1 | 0.007 | < 1 | 0.013 | < 1 | 0.018 |  | 0.098 | 0.03 |
